Experimental data taken from patent US5220042A, “1,4-benzoquinone derivatives and benzene derivatives, and process for preparing the same” (priority 1984, dated 1993).

Tests used:
[1] = biological target: T1, 5-lipoxygenase (Cavia porcellus, UniProt A0A286X958); assay: 5-Lipoxygenase inhibitory activity (conversion of 14C-arachidonic acid to 5-HETE) in guinea pig peritoneal exudate cells; format: cell-based, guinea pig (Hartley strain); conditions: read-out: inhibition ratio (%) of 5-lipoxygenase activity; for inhibition at 30 µM: concentration 3 × 10^-5 M; for inhibition at 3 µM: concentration 3 × 10^-6 M; for inhibition at 0.3 µM: concentration 3 × 10^-7 M; for inhibition at 10 µM: concentration 10^-5 M; for inhibition at 1 µM: concentration 10^-6 M; for inhibition at 0.1 µM: concentration 10^-7 M
T1 construct: endogenous in cells; host or cells: guinea pig (Hartley strain) casein-elicited peritoneal exudate cells, intact cell suspension
T1 sequence (A0A286X958 1-674): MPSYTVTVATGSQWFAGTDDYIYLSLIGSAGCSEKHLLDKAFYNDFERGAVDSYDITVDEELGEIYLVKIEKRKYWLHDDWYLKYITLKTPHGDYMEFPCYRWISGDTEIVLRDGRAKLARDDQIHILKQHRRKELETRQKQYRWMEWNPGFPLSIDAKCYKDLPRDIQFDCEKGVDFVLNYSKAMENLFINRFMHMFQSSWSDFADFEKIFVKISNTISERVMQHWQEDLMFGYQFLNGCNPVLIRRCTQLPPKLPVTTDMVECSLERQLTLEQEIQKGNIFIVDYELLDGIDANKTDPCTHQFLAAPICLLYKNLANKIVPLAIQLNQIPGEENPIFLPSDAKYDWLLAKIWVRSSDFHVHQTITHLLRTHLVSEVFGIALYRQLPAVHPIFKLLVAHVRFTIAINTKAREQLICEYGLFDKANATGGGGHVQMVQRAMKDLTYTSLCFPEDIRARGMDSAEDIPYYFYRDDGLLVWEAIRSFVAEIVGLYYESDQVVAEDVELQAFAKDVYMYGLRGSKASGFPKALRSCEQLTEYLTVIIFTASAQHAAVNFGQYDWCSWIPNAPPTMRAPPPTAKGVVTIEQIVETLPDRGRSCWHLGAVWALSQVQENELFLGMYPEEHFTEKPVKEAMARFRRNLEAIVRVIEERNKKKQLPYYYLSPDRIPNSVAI
Procedure: 5-Lipoxygenase inhibitory activity of the present compounds was determined by a method according to procedures described in "J. Biol. Chem., Vol. 256, pages 4156-4159, (1981, Ibid. Vol. 258, pages 5754-5758 (1983).
(1) Preparation of Test Cells
A guinea pig (Hartley strain) (500-650 g body weight) was intraperitoneally administered with 2%-casein solution in 3/50 the volume of body weight. 14 Hours after the administration, the animal was sacrificed by bleeding and the peritoneal cavity was washed with Dulbecco's phosphate buffered saline (PBS) containing 3 U/ml of heparin and the exudate cells were harvested. The sample of cells was washed twice with Dulbecco's PBS (-), then the cells were suspended in Dulbecco's PBS (-), containing 1 mM of calcium chloride and 5.5 mM of glucose, so as to make a suspension having the concentration of 2.5×10^7 cells/ml.
To 0.2 ml of the above-mentioned cell suspension was added 10^-5 M of Indomethacine, and incubated at 30° C. for 2 minutes. Each of the appropriate concentrations of test compounds was added to the suspension respectively, further incubated for 2 minutes. Next, 10 μm of Ionophore A23187 (manufactured by Calbiochem-Behring, San Diego, Calif., U. S. A) was added to the suspension, further, 10 μm of ^14 C-arachidonic acid (manufactured by Amersham Japan, Ltd., Tokyo, Japan) was added and initiated the reaction. 3 Minutes after the initiation of the reaction, 0.1 ml of 0.2M-citric acid was added so as to terminate the reaction. 1.2 Milliliters of ethyl acetate was added to the reaction mixture and shaked for 5 minutes. The reaction mixture was centrifuged at 3,000 rpm for 5 minutes so as to separate the organic layer from the aqueous layer. 1 Milliliter of the organic layer (the upper layer) was dehydrated by passing through a mini-column packed with anhydrous sodium sulfate. The dehydrated organic layer was dried under nitrogen gas stream. The residue obtained was dissolved in ethyl acetate, and the total amount of the ethyl acetate solution was spotted onto thin layer chromochromatography (TCL) plate (Art. 11845 manufactured by E. Merck A. G.). The TCL was carried out with a mixed solvent of diethyl ether:petroleum:ether:acetic acid (50:50:1 volume/volume), then the radioactive metabolites on the plate were detected by using "Ultrafilm ^3 H" (a trademark for a X-ray film, manufactured by LKB Co.). Each fractions corresponding to the metabolites was scraped in to a scintillation vial, and 5 ml of "Scintilator ACS-II" (manufactured by Amersham Japan, Ltd.), was added then the radio-activity was determined by means of a liquid scintillation counter.

[2] = test system: SRS-A release from lung fragments; assay: Inhibition of SRS-A release from sensitized guinea pig lung fragments; format: cell-based, guinea pig (Hartley strain); conditions: Cavia porcellus, Table 2B, read-out: Inhibitory activities on SRS-A (%)
Procedure: Inhibitory activities on the release of SRS-A and histamine of the present compounds were determined.
A male guinea pig (Hartley strain) (body weight: about 300 g) was sensitized by a method according to P. Anderson: "Int. Archs. Allergey appln. Immunol., Vol. 64, pages 249-258 (1981). Thus, 30 mg/kg of cyclophosphamide was intraperitoneally administered to the guinea pig, and 2 days after 1 microgram of ovalbumin (manufactured by Sigma Chemical Co., St. Louis, Mo. U. S. A.) together with 10 mg of aluminium hydroxide gel were intraperitoneally administered so as to have the animal sesitized.
50 Days after the sesitization, the animal was killed by exsanguination, and the lung was isolated from the animal and was perfused with 20 ml of Tyrode's solution, then immersed in an ice-cooled Tyrode's solution. The parenchyma of the lung was cut by using McIlwain-type tissue chopper to make it into fragments of lung having 2 mm square and the fragments were washed with Tyrode's solution. 400 Milligrams of sectiles of lung were suspended in 3.6 ml of Tyrode's solution, and this suspension was preincubated at 37° C. for 5 minutes, then 4 microliters of dimethyl sulfoxide solution of the test compound, in the case of control 4 microliters of dimethyl sulfoxide alone was added to the suspension. 5 Minutes after, 0.4 ml of 100 micrograms/ml of ovalbumin solution added so as to release SRS-A for 10 minutes. The suspension was ice-cooled and filtered through gauze, the filtrate was centrifuged at 2,000 rpm for 10 minutes and the supernatant was collected. The supernatant was stored in freezed state at -80° C. until bio-assay was conducted.
Amounts of SRS-A and histamine contained in the supernatant were determined by bio-assay using ileum of guinea pig.
A piece of the ileum (2-3 cm of length) positioned from 15-25 cm from the opening portion of ileocecum was isolated from a male guinea pig (Hartley strain) (body weight: 400-600 g) which was fasted for 24 hours. The piece of ileum was hanged vertically in a Magnus tube which was filled with 10 ml of Tyrode's solution containing 10^-7 M of atropine sulfate under air stream conditions. The isotonic contraction of the piece of the ileum was measured at 0.5 g of load by using an isotonic transducer "TD-112S" (manufactured by Nihon Koden Co., Ltd.). The measurements were carried out after the reaction to histamine of the piece of ileum was kept constant. Bioassay of histamine was measured by using the value of contraction shown in 30 seconds after the addition of the supernatant. Bioassay of on SRS-A was measured by using the value of contraction shown at 2 minutes after the addition of the supernatant in the presence of 10^-6 M of pyrilamine (manufactured by Sigma Chemical Co.), and compared with the standard curve of crude SRS-A released from the fragments of the lung.

SMILES	inhibition at 30 µM [1] [%]	inhibition at 3 µM [1] [%]	inhibition at 0.3 µM [1] [%]	inhibition at 10 µM [1] [%]	inhibition at 1 µM [1] [%]	inhibition at 0.1 µM [1] [%]	inhibition at 3 µM [2] [%]	inhibition at 30 µM [2] [%]	inhibition at 1 µM [2] [%]	inhibition at 10 µM [2] [%]
COC1=CC(=O)C(O)=C(CCCCCCC/C=C\CCCCCCCC2=C(O)C(=O)C(C)=C(OC)C2=O)C1=O [Test Compound No. 3, 1-(5-Methoxy-2-hydroxy-1,4-benzoquinon-3-yl)-16-(5-methoxy-2-hydroxy-6-methyl-1,4-benzoquinon-3-yl)-Z-8-hexadecene]	96	95	44	97	86	4				
CCCCC#CCCCCCCCCCC1=C(OC)C(=O)C=C(OC)C1=O [Test Compound No. 32, 2,5-Dimethoxy-3-(10-pentadecynyl)-1,4-benzoquinone]		80	36	87	56		12.4	26		
CCCCC#CCCCCCCCC1=C(OC)C(=O)C=C(OC)C1=O [compound 31]		91	43	93	73		17	37.7		
CCCC/C=C\CCCCCCCCCC1=CC(=O)C=C(OC)C1=O [Test Compound No. 1, 5-Methoxy-3-(Z-10-pentadecenyl)-1,4-benzoquinone]	87	13		81	10					
COC1=CC(=O)C(O)=C(CCCCCCC/C=C\CCCCCCCc2cc(O)c(C)c(O)c2)C1=O [Test Compound No. 6, 1-(2-Hydroxy-5-methoxy-1,4-benzoquinon-3-yl)-16-(4-methyl-3,5-dihydroxyphenyl)-Z-8-hexadecene]			29		58	7				
COC1=CC(=O)C(O)=C(CCCCCCCC2OC2CCCCCCCC2=C(O)C(=O)C=C(OC)C2=O)C1=O (stereo not drawn) [Test Compound No. 4, 1,16-bis(5-Methoxy-2-hydroxy-1,4-benzoquinon-3-yl)-8,9-epoxyhexadecane]		96	92		96	66				
COC1=CC(=O)C(O)=C(CCCCCCC/C=C\CCCCCCCc2cc(O)cc(O)c2)C1=O [Test Compound No. 7, 1-(2-Hydroxy-5-methoxy-1,4-benzoquinon-3-yl)-16-(3,5-dihydroxyphenyl)-Z-8-hexadecene]		80	28		70	24				
COc1cc(OC(C)=O)c(OC)c(CCCCCc2c(OC)c(OC(C)=O)cc(OC)c2OC(C)=O)c1OC(C)=O [Test Compound No. 37, 1,5-bis[1,4-Diacetoxy-2,5-(dimethoxy)phen-3-yl]-pentane]							69.2	90		
CCCCC#CCCCC1=C(OC)C(=O)C=C(OC)C1=O [Test Compound No. 35, 2,5-Dimethoxy-3-(4-nonynyl)-1,4-benzoquinone]							64.9	96		
CCCCCCCCCCCCCC1=C(OC)C(=O)C=C(OC)C1=O [Test Compound No. 8, 2,5-Dimethoxy-3-tridecanyl-1,4-benzoquinone]		40		74	12					
CC1=C(C)C(=O)C(CCCCCC2=C(C)C(=O)C(C)=C(C)C2=O)=C(C)C1=O [Test Compound No. 55, 2,2'-Pentamethylenebis(3,5,6-trimethyl-1,4-benzoquinone)]									13.2	38.7
CCCC/C=C\CCCCCCCC1=C(O)C(=O)C=C(OC)C1=O [Test Compound No. 2, 5-Methoxy-2-hydroxy-3-(Z-8-tridecenyl)-1,4-benzoquinone]			22		67	10				
COC1=CC(=O)C(OC)=C(CCCCCCCC2OC2CCCCCCCC2=C(OC)C(=O)C=C(OC)C2=O)C1=O (stereo not drawn) [Test Compound No. 5, 1,16-(2,5-Dimethoxy-1,4-benzoquinon-3-yl)-8,9-epoxyhexadecane]		86	24		86	17				
CCOC(=O)C1=C(OC)C(=O)C(CCCCCC2=C(OC)C(=O)C(CCO)=C(OC)C2=O)=C(OC)C1=O [Test Compound No. 50, 1-(2,5-Dimethoxy-3-ethoxycarbonyl-1,4-benzoquinon-6-yl)-5-[2,5-dimethoxy-3-(2-hydroxyethyl)-1,4-benzoquinon-6-yl]pentane]									14.8	41.7
